Read-outs that look alike come from different tables or passages of the source. Marks after values point to notes of the source that are not given here.
Assays:
[1] = Experimental: Patients received focal CRT at the current standard dose of 54 Gy in 180 cGy fractions, Monday through Friday for a total of 30 fractions over 6 weeks, with a rest period on Saturday and Sunday of each week.
Adverse events (AE) were graded according to the Common Terminology Criteria for Adverse Events version 5.0.
A rolling six design was used to estimate the MTD or RP2D. Overall survival (OS) was estimated using the Kaplan Meier method including 95% confidence intervals (CI). OS was calculated as the time (in months) from enrollment until date of death. […] Progressive disease was based on central imaging review. […] OS is compared with an historical cohort of patients which cumulatively includes DIPG patients from ACNS0126[23] and ACNS0222[22] using a log-rank test. PK parameters were analyzed with summary statistics, including means, and standard deviations.

clinical = conditions: human, in vivo
Experimental: Pharmacokinetic parameters were calculated using noncompartmental methods[20] using Phoenix® WinNonlin® Version 8.1 (WinNonlin version 8.1.03530, Pheonix 64; Pharsight Corporation, Mountain View, CA). […] Oral steady-state clearance (ClSS/F) was calculated using the equation, ClSS = Dose/AUCτ.

Structure (SMILES): C=CCn1c(=O)c2cnc(Nc3ccc(N4CCN(C)CC4)cc3)nc2n1-c1cccc(C(C)(C)O)n1 [adavosertib]
- Lung infection, patient-courses with grade >= 3 ([1]; all dose levels (N = 89)): 1 (1) # (%)
- Lung infection, patient-courses with grade >= 3 ([1]; dose level 4 (N = 15), 95 mg/m^2): 1 (6) # (%)
- Alanine aminotransferase increased, patient-courses with grade >= 3 ([1]; human, in vivo, 6 weeks): 1 (1) # (%)
- Anemia, patient-courses with grade >= 3 ([1]; human, in vivo, 6 weeks): 3 (3) # (%)
- Dizziness, patient-courses with grade >= 3 ([1]; human, in vivo, 6 weeks): 1 (1) # (%)
- Febrile neutropenia, patient-courses with grade >= 3 ([1]; human, in vivo, 6 weeks): 1 (1) # (%)
- Headache, patient-courses with grade >= 3 ([1]; human, in vivo, 6 weeks): 1 (1) # (%)
- Hypocalcemia, patient-courses with grade >= 3 ([1]; human, in vivo, 6 weeks): 1 (1) # (%)
- Lymphocyte count decreased, patient-courses with grade >= 3 ([1]; human, in vivo, 6 weeks): 16 (18) # (%)
- Neutrophil count decreased, patient-courses with grade >= 3 ([1]; human, in vivo, 6 weeks): 4 (4) # (%)
- Weight gain, patient-courses with grade >= 3 ([1]; human, in vivo, 6 weeks): 2 (2) # (%)
- White blood cell decreased, patient-courses with grade >= 3 ([1]; human, in vivo, 6 weeks): 5 (6) # (%)
- Recommended phase 2 dose (RP2D) ([1]; human, in vivo, po, 6 weeks): 200 mg/m^2/d
- Maximum tolerated dose (MTD) ([1]; seven dose levels up to 200 mg/m^2/day with CRT): No MTD was reached
- Dose dependence of Cmax and AUC (clinical): appeared to increase in proportion to dose
- Median BSA-adjusted plasma clearance (clinical): 45.2 L/hr/m^2
- Median half-life (clinical): 4.4 h
- half-life (clinical): 4.4 h
- AUC (clinical; 50 mg/m2): 2.45 ± 1.04 µM·h
- AUC0-8h (clinical; 50 mg/m2): 1.42 ± 0.438 µM·h
- AUC(0-inf) (clinical; 50 mg/m2): 2.22 ± 0.8 µM·h
- CLss (steady-state clearance) (clinical; 50 mg/m2): 47.9 ± 23.2 L/hr/m^2
- Cmax (clinical; 50 mg/m2): 0.356 ± 0.109 µM
- Tmax (clinical; 50 mg/m2): 1.9 ± 0.9 h
- half-life (clinical; 50 mg/m2): 4.2 ± 1.3 h
- AUC(0-t) (clinical; 50 mg/m2, AUC0-8h): 1.65 ± 0.654 µM·h
- Cmax (clinical; 50 mg/m2, Cmax): 0.422 ± 0.17 µM
- Tmax (clinical; 50 mg/m2, Tmax): 1.9 ± 0.9 h
- AUC (clinical; 95 mg/m2): 5.74 ± 2.72 µM·h
- AUC0-8h (clinical; 95 mg/m2): 3.362 ± 0.85 µM·h
- AUC(0-inf) (clinical; 95 mg/m2): 6.03 ± 1.98 µM·h
- CLss (steady-state clearance) (clinical; 95 mg/m2): 39.2 ± 17.2 L/hr/m^2
- Cmax (clinical; 95 mg/m2): 0.869 ± 0.235 µM
- Tmax (clinical; 95 mg/m2): 1.8 ± 0.4 h
- half-life (clinical; 95 mg/m2): 4.5 ± 1.2 h
- AUC(0-t) (clinical; 95 mg/m2, AUC0-8h): 4.01 ± 1.81 µM·h
- Cmax (clinical; 95 mg/m2, Cmax): 0.933 ± 0.351 µM
- Tmax (clinical; 95 mg/m2, Tmax): 1.9 ± 0.5 h
- AUC (clinical; 130 mg/m2): 7.21 ± 2.76 µM·h
- AUC0-8h (clinical; 130 mg/m2): 3.731 ± 1.583 µM·h
- AUC(0-inf) (clinical; 130 mg/m2): 5.87 ± 2.26 µM·h
- CLss (steady-state clearance) (clinical; 130 mg/m2): 41.6 ± 19.8 L/hr/m^2
- Cmax (clinical; 130 mg/m2): 0.821 ± 0.41 µM
- half-life (clinical; 130 mg/m2): 4.1 ± 0.5 h
- AUC(0-t) (clinical; 130 mg/m2, AUC0-8h): 4.48 ± 1.77 µM·h
- Cmax (clinical; 130 mg/m2, Cmax): 0.994 ± 0.467 µM
- Tmax (clinical; 130 mg/m2, Tmax): 2.3 ± 0.8 h
- AUC (clinical; 160 mg/m2): 12.8 ± 1.8 µM·h
- AUC0-8h (clinical; 160 mg/m2): 6.689 ± 2.738 µM·h
- AUC(0-inf) (clinical; 160 mg/m2): 11.4 ± 3.73 µM·h
- CLss (steady-state clearance) (clinical; 160 mg/m2): 25.6 ± 3.3 (n* = 4) L/hr/m^2
- Cmax (clinical; 160 mg/m2): 1.27 ± 0.705 µM
- half-life (clinical; 160 mg/m2): 4.8 ± 1 h

— publication PMC9209747 (Neuro-oncology Advances, 2022)
